# Experimental data as given in patent US20260116867A1, “PROTEOLYSIS TARGETING CHIMERAS FOR HUMAN PREGNANE X RECEPTOR AND FOR DEGRADATION OF GSPT1” (ST. JUDE CHILDREN'S RESEARCH HOSPITAL, priority 2022, published 2026).
# Legend:
# PXR [1] = target: T1, PXR (Homo sapiens, UniProt O75469); test: cell-based hPXR inverse agonistic assay
# T1 sequence (O75469 1-434): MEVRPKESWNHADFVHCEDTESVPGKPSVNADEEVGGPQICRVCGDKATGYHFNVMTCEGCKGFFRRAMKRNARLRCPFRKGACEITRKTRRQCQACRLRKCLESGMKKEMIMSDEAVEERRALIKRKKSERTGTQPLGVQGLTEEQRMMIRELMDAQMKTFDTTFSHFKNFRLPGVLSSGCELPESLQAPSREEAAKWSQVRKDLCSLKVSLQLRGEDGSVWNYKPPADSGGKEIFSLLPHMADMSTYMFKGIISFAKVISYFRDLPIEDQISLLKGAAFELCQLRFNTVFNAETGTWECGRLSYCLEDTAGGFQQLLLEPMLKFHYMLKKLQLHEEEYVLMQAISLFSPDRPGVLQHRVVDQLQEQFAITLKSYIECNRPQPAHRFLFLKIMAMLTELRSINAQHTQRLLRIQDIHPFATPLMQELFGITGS
# [2] = test system: SNU—C4 3xFLAG-PXR KI cells; test: TMT-MS whole-proteome quantification in SNU—C4 3xFLAG-PXR KI cells; assay type: cell-based, human; details: 5 μM, 12 h vs DMSO; 9,692 proteins detected
# Description: The next day, 0.5% DMSO or 5 μM SJPYT-195 was added to triplicate dishes. After 12 h, the media were removed, cells were washed twice with ice cold PBS, 500 μL of 50 mM HEPES (pH 8.0) and 8 M urea was added to each dish, cells were scraped and transferred to 1.5 mL tubes, and the tubes were frozen on dry ice and stored at −80° C. Processing for TMT-MS was conducted according to a previously optimized protocol. To profile the whole proteome, the cell lysates (approximately 100 μg of protein per sample) were proteolyzed with Lys-C(Wako) at an enzyme-to-substrate ratio of 1:100 (w/w) for 3 h at room temperature. Samples were diluted with 50 mM HEPES (pH 8.5) to a final 2 M urea concentration. […]
# Dried peptides were resuspended in 50 μL 100 mM HEPES (pH 8.5) and labeled with TMTpro 16plex Label Reagents [Thermo Fisher Scientific, 10 μg/μL in 100% ACN, 1:2 (w/w) ratio, room temperature for 1 h]. […] Fractions were dried in SpeedVac and resuspended in 5 μL 5% FA/1% trifluoroacetic acid immediately prior to mass spectrometry and quantitation analysis. […]
# MS raw files were converted to mzXML files, and database searches were performed against Uniprot HUMAN protein database using our in-house developed JUMP pipeline. […] TMT-based quantification and statistical analysis were performed based on our previous method. […]
# PXR [3] = target: T1, PXR; test: Western blot of endogenous 3xFLAG-PXR protein in SNU—C4 3xFLAG-PXR KI cells; assay type: cell-based; design: To assess SJPYT-195 activity against endogenous PXR, CRISPR-Cas9 was used; endogenous in cells
# Description: The following day, DMSO or compounds were added to result in 0.5% DMSO and the indicated compound concentrations, and cells were incubated for the indicated time points. Cells were lysed and subjected to western blotting as above using antibodies against FLAG (Sigma-Aldrich, cat. #F3165, 1:2,000 dilution), GSPT1 (Abcam, cat. #ab126090, 1:4,000 dilution), and R-Actin (Cell Signaling Technology, cat. #4967, 1:2,000 dilution).
# PXR [4] = target: T1, PXR; test: cell-based hPXR antagonistic assay
# PXR RNA = PXR RNA level in SNU—C4 3xFLAG-PXR KI cells; assay type: cell-based, human
smiles,measurement,setting,value
"COc1ccc(OC)c(-n2nnc(C(=O)Nc3cc(Oc4cccc5c4C(=O)N(C4CCC(=O)NC4=O)C5=O)cc(C(C)(C)C)c3)c2C)c1 (stereo not drawn) [Compound M4, N-(3-(tert-butyl)-5-((2-(2,6-dioxopiperidin-3-yl)-1,3-dioxoisoindolin-4-yl)oxy)phenyl)-1-(2,5-dimethoxyphenyl)-5-methyl-1H-1,2,3-triazole-4-carboxamide]",inhibition at 10 µM,PXR [1]; read-out: Inverse agonist (% inhibition at 10 μM),133%
same,IC50,PXR [1]; read-out: Inverse agonist (IC50/μM),0.18 ± 0.055 µM
same,proteins changed at whole-proteome scale (selectivity),[2],"five down-regulated proteins (GSPT1, GSPT2, ZFP91, CYP1A1, and BRIP1) and one upregulated protein (FOS)"
same,reduction of PXR protein,"PXR [3]; 5 μM, 12 h",~50%
same,maximum degradation efficacy (DNax) of endogenous PXR protein,"PXR [3]; SNU—C4 3xFLAG-PXR KI cells, FIG. 4B",85% ±1
same,DC50,"PXR [3]; SNU—C4 3xFLAG-PXR KI cells, FIG. 4B, read-out: half maximal degradation concentration (DC50) of endogenous PXR protein",310 ± 130 nM
same,kinetics of PXR protein decrease,"PXR [3]; time-course, FIG. 5A-B",quite slow
same,PXR protein level (in words),"PXR [3]; western blot, SNU—C4 3xFLAG-PXR KI cells",reduced PXR to a greater extent than CC-885
same,inhibition at 10 µM,PXR [4]; read-out: Antagonist (% inhibition at 10 μM),96%
same,IC50,PXR [4]; read-out: Antagonist (IC50/μM),0.94 ± 0.2 µM
same,reduction of PXR RNA,"PXR RNA; 5 μM, 12 h",negligible reduction
same,PXR RNA level,"PXR RNA; time-course, FIG. 5C",drastically reduced PXR RNA level
